The values below come from US20140299020A1, “WATER-BASED BLACK INK COMPOSITION, INKJET RECORDING METHOD USING SAME, AND COLORED BODY” (NIPPON KAYAKU KABUSHIKI KAISHA, priority 2011, published 2014).

Molecules are shown by their SMILES.

The data set in a line: Solubility with respect to water at room temperature. Type of data set: physicochemical. The settings on record: lithium salt.

In general, solubility refers to how much of the substance goes into solution per volume. Regarding `Nc1c(N=Nc2ccc3c(O)c(N=Nc4ccc(N=Nc5ccc(S(=O)(=O)O)cc5)cc4S(=O)(=O)O)c(S(=O)(=O)O)cc3c2S(=O)(=O)O)cc(S(=O)(=O)O)c2cc(S(=O)(=O)O)c(N=Nc3ccc([N+](=O)[O-])cc3S(=O)(=O)O)c(O)c12` [Compound 1], the solubility was at least 100 mg/mL.

As to `Nc1c(N=Nc2ccc3c(O)c(N=Nc4ccc(N=Nc5ccc(S(=O)(=O)O)cc5)cc4S(=O)(=O)O)c(S(=O)(=O)O)cc3c2S(=O)(=O)O)cc(S(=O)(=O)O)c2cc(S(=O)(=O)O)c(N=Nc3ccc(S(=O)(=O)O)cc3[N+](=O)[O-])c(O)c12` [Compound 3], the solubility was at least 100 mg/mL.

`Cc1cc(N=Nc2c(S(=O)(=O)O)cc3c(S(=O)(=O)O)c(N=Nc4cc(S(=O)(=O)O)c5cc(S(=O)(=O)O)c(N=Nc6ccc([N+](=O)[O-])cc6S(=O)(=O)O)c(O)c5c4N)ccc3c2O)c(OCCCS(=O)(=O)O)cc1N=Nc1ccc([N+](=O)[O-])cc1S(=O)(=O)O` [Compound 16]: the solubility was at least 100 mg/mL.
